Tests used:
[1] = tested on: L540; assay: Apoptosis by annexin V-FITC and Hoechst double staining, L540; format: cell-based, human; conditions: 5 μM, 24 h and 48 h
Procedure: This assay was performed on 7 cell lines (HDLM2 was excluded due to the low number of available cells) at 24 h and 48 h following EDO-S101 treatment (5 μM, DMSO). Control cells were cultured in the same final concentration of DMSO. Only viable cells (using Hoechst staining) were focused on, and all necrotic cells were excluded. Apoptosis was determined using annexin V-FITC and Hoechst (33342) double staining according to the manufacturer's instructions (BD Biosciences). Cell-cycle fractions were determined by Hoechst nuclear staining. Briefly, cells were harvested, washed in PBS, incubated with annexin V-FITC and Hoechst solution for 30 minutes at room temperature. Data were collected using a FACSCalibur flow cytometer (BD Biosciences) and analyzed with FlowJo Version 7.5.5 obtainable from FlowJo, LLC. Results represent the mean value of 3 independent experiments.

[2] = tested on: L1236-R100, L1236/DMSO and L1236; assay: Viable cell count and IC50, three L1236 cell lines; format: cell-based; conditions: Homo sapiens, L-1236; all cell lines tested, including R100
Procedure: • (a) Five Hodgkin lymphoma cell lines (KMH2, HDML2, L540, L1236 and L426) were cultured separately in the presence of bendamustine, vorinostat and EDO-S101 dissolved in DMSO at 37° C. L1236-derived Hodgkin lymphoma cell lines were selected as they have an acquired stable resistance to bendamustine (R100) or an ability to display continuous growth upon extended exposure to sub-lethal concentrations of bendamustine (R25, R50 and R75). A detailed description of the L1236-R Hodgkin lymphoma cell lines is disclosed in De Filippi et al, ASH 2015, Abstract. #2479. In these tests, the L1236-100R bendamustine resistant strain was used. […] Control cells were cultured in the same final concentration of DMSO. The number of viable cells was assessed at 24, 48 and 72 hours through a Countess™ automated cell counter (Invitrogen), each experiment being repeated three times and the results given being the mean of the three results±SD.

[3] = tested on: Hodgkin lymphoma cell lines; assay: Mitotic index and metaphases after EDO-S101 treatment, all cell lines; format: cell-based, human
Procedure: The mitotic index and chromosomal aberrations for each of the cell lines were evaluated after treatment with either 20 μmol or 10 μmol EDO-S101 in DMSO. Each cell line was cultured at 37° C. in the presence of RPMI 1640 supplemented with 10% FCS and antibiotics. Colcemid (0.1 ug/ml) was added 2 h before harvesting and slides with chromosomes in metaphase were prepared following the standard methanol/acetic acid (3/1, v/v) procedure. The slides were stored at −20° C. until use.
FISH was performed using a combination of standard procedures from the recommended protocols for chromosome analysis, following telomere and centromere staining, using PNA probes. In all, 100 metaphases were scored per in vitro dose exposure.
The mitotic index was determined by measurement of the sum of all cells in prophase, metaphase, anaphase and telophase divided by the total number of cells.

[4] = tested on: R100; assay: ATM/ATR transcripts, R100; format: cell-based, human; conditions: bendamustine resistant R100; EDO-S101 alone
[5] = tested on: L428 cells; assay: L428 xenograft in NSG mice, CD30 immunofluorescence of cytospin slides; format: in vivo; parameters: key to Spleen, red pulp activation, diffuse (CD30 staining score per animal) / Liver, Tumour cell infiltration (CD30 staining score per animal) / Bone marrow (CD30 staining score per animal): 0: without any staining; minimal, <1% staining; 2: mild, 1% staining; 3: moderate, <10% staining; marked, 10-40% staining; 5: severe, >40% of cells staining
Excerpt: Immunodeficient NOD-SCID-gammac−/− (NSG) mice aged 5 to 6 weeks were purchased from Charles River (NOD.Cg-Prkdcscid II2rgtm1Wjl/SzJ). The mice arrived two weeks before the beginning of the experiments and were housed in micro-isolator cages during the entire course of the study. Immediately prior to the injection of Hodgkin lymphoma cells, mice were exposed to 3 Gy gamma irradiation using an IBL637 ^137Cs irradiator at a dose rate of 0.61 Gy/min. From 10^3 to 10^6 cells, either from the original cell lines or following amplification, were injected intravenously via the retro-orbital sinus. The mice were sacrificed by cervical dislocation and different organs were analysed and tumoural infiltration examined using multiple techniques.
Two independent experiments were performed to investigate the dose-effect of EDO-S101 in NSG mice eight weeks after xenografting with L428 cells as in Example 8. The aim of the protocol shown in FIG. […]
The mice were sacrificed by cervical dislocation. The sampled organs consisted of the eyes (site of injection), liver, spleen and bone marrow. Following dissection of different organs, including tumours, the first portion was used for flow cytometry (FACS) and cytogenetic analyses while the second was fixed in 4% paraformaldehyde (PFA) for immunohistochemistry (IHC). To obtain a single cell suspension, the tissues were first cut into pieces. Thereafter, the cells were physically disaggregated using an 80 μm nylon cell strainer and filtered a second time through a 70 μm nylon cell strainer (BD Biosciences, Erembodegem, Belgium).
Cells were cytospun onto poly-L-lysine-coated glass slides at 700 rpm for 4 min, fixed with 10% formalin for 10 min, and treated with 0.25% Triton X-100 solution for 10 min. After blocking with 5% bovine serum albumin (Sigma), the cells were incubated with an anti-CD30 antibody (DAKO A/S, Glostrup, Denmark). Then, cells were treated with Cyanine 3 anti-mouse IgG (Invitrogen, Carlsbad, CA). As a negative control, staining was carried out in the absence of primary antibody. The L428-s cell line served as positive control.
Individual microscopic findings following immunofluorescence CD30 staining of cytopsin slides: “0”=without any staining; “1”=minimal, <1% staining; “2”=mild, 1% staining; “3”=moderate, <10% staining; “4”=marked, 10-40% staining; “5”=severe, >40% of cells staining.

[6] = tested on: L1236; assay: Combination with Brentuximab Vedotin, % survival, L1236; format: cell-based, human; conditions: EDO-S101 1.56 μM (sub-IC50) with Brentuximab Vedotin 3.12 μg/ml
Procedure: 1.56 μM of EDO-S101 was administered to two Hodgkin lymphoma cell lines, the bendamustine naïve cell line L1236 and the bendamustine resistant cell line R100. In a second experiment, Brentuximab Vedotin was administered at a concentration of 3.12 μg/ml to the L1236 cell line and at a concentration of 0.39 μg/ml to the R100 cell line. Finally, in a third experiment EDO-S101 and Brentuximab Vedotin were administered in combination to each of the two cell lines at the same concentrations that they were administered in the monotherapy experiments.

`Cn1c(CCCCCCC(=O)NO)nc2cc(N(CCCl)CCCl)ccc21` [EDO-S101] was tested. Which sensitivity for apoptosis [1] did it give?
Its sensitivity for apoptosis is “higher sensitivity”.

What about the IC50 [2] of the same compound?
The IC50 was 1000 to 3000 nM.

And the metaphases observed ([3]; 10 μmol)?
The metaphases observed was “only a few metaphases of poor quality”.

And the metaphases observed ([3]; 20 μmol, any cell line)?
The metaphases observed was “No metaphases were observed”.

What about the “sensitivity in mitotic index assay” value ([3]; all Hodgkin lymphoma cell lines, 24 h of treatment) of the same compound?
The value was “remarkably high sensitivity”.

What about the ATM/ATR transcripts [4] of the same compound?
Its ATM/ATR transcripts is “correct the constitutive ATM/ATR unbalance by upregulating ATR and downregulating ATM transcripts”.

What about the “Spleen, red pulp activation, diffuse (CD30 staining score per animal)” value (“Spleen … (CD30 staining score per animal)” for short) ([5]; 1*60 mg/kg) of the same compound?
Its value is 0.

What about the “Liver, Tumour cell infiltration (CD30 staining score per animal)” value (from here on “Liver … (CD30 staining score per animal)”) ([5]; 1*60 mg/kg, 60 mg/kg) of the same compound?
Its value is 0.

What about the “Liver … (CD30 staining score per animal)” value ([5]; 1*80 mg/kg) of the same compound?
The value was 0.

And the “Spleen … (CD30 staining score per animal)” value ([5]; 1*80 mg/kg)?
Its value is 0.

And the “Bone marrow (CD30 staining score per animal)” value ([5]; 2*60 mg/kg, 60 mg/kg)?
The value was 0.

What about the “Liver … (CD30 staining score per animal)” value ([5]; 2*60 mg/kg, 60 mg/kg) of the same compound?
The value was 0.

What about the “Spleen … (CD30 staining score per animal)” value ([5]; 2*60 mg/kg, 60 mg/kg) of the same compound?
The value was 0.

What about the “tumour cells in organs (liver, spleen, bone marrow)” value ([5]; single dose of 80 mg/kg) of the same compound?
Its value is “No tumour cells were observed in any organs”.

And the “cell death in combination with Brentuximab Vedotin” value [6]?
Its value is “synergistic”.

From patent publication US12440475B2, “Hodgkin lymphoma therapy” (priority 2016, dated 2025)
